Paper PMC9324262, “Selective CDK9 Inhibition by Natural Compound Toyocamycin in Cancer Cells” (Cancers, 2022)

What was measured:
CDK2/Cyclin 2A = molecular target: T1, CDK2/Cyclin 2A (Homo sapiens, UniProt P24941); experiment: biochemical; conditions: 10 µM ATP, 30 °C, 60 min
T1 construct: purchased BPS Bioscience
Procedure: The in vitro enzymatic assays were conducted at BPS Bioscience. CDK9/Cyclin T1, CDK2/Cyclin 2A, CDK4/Cyclin D3, and CDK6/Cyclin D3 enzymatic activities were tested with an ATP Kinase-Glo Plus Luminescence kinase assay kit (Promega, V6073, Madison, WI, USA), while the CDK7/Cyclin H/MAT1 activities were tested using ADP-Glo Kinase (Promega, V6930). These assays measure kinase activity by quantifying the amount of ATP or ADP remaining in solution following a kinase reaction. The luminescent signal from the assay is correlated to the amount of ATP or ADP present and is inversely correlated to the kinase activity. The compounds were diluted to 10% DMSO and were added to the reaction so that the final concentration of DMSO was 1% in all reactions. All enzymatic reactions were conducted at 30 °C for 60 min. […] After the enzymatic reaction, the luminescence signal was measured using a BioTek Synergy 2 microplate reader (Agilent, Santa Clara, CA, USA). Kinase activity assays were performed in duplicate at each concentration and the percent of kinase activity was calculated as a ratio of luminescence intensities in the absence or in presence of the compounds. […] IC50 values were determined by the concentration causing a half-maximal percent activity (BPS Bioscience, San Diego, CA, USA).

YB5 cells = experiment: GFP reactivation in YB5 cell-based system (flow cytometry); set-up: species or system human
Procedure: YB5 cells are derived from SW48 cells (human colon cancer cell line), and contain a single insertion of a DNA hypermethylated cytomegalovirus (CMV) promoter driving the green fluorescent protein (GFP) gene, as previously described. YB5 cells are cultured in L-15 medium supplemented with 10% fetal bovine serum and grown in log-phase in 1% CO2 atmosphere. YB5 cells were authenticated by DNA fingerprinting prior to drug screening and validation experiments. GFP expression in YB5 cells is silenced in >99.9% of the cells due to the CMV promoter DNA hypermethylation and repressive chromatin marks around the transcriptional start site. The human HCT116 colon cancer-derived GFP-reporter system, comprising a GFP gene under the control of an endogenously hypermethylated SFRP1 gene promoter, was kindly provided by Dr. Stephen Baylin (Johns Hopkins University). These cells are cultured in McCoy’s 5A medium supplemented with 10% fetal bovine serum and grown in log-phase in 5% CO2 atmosphere at 37 °C. The 451-Lu-BR melanoma cells were a kind gift from Dr. Raza Zaidi (Fels Institute for Cancer Research and Molecular Biology, Temple University School of Medicine, Philadelphia). These cells are derived from parental 451-LU cells that have acquired resistance to BRAF inhibitors. The 451-Lu-BR cells were cultured at 37 °C in Dulbecco’s Modified Eagle Medium (DMEM) supplemented with 10% fetal bovine serum, L-alanyl-L-glutamine (2 mM), and gentamycin (50 µg/mL) in 5% CO2 at 37 °C. The natural drug library (natural product set II) containing 120 compounds was obtained from the National Cancer Institute Developmental Therapeutics Program. Natural compounds were dissolved in DMSO (10 mM) in 96-well plates that were kept at −80°C until use. Toyocamycin, analogues of toyocamycin (sangivamycin, tubercidin, 3-deaza-adenosine, DZNep), CDK inhibitors, and epigenetic drugs (decitabine, SAHA, trichostatin A, depsipeptide) were purchased from Sigma-Aldrich (St. Louis, MO, USA,) for validation studies, dissolved in DMSO, and kept at −80 °C until use.
YB5 cells were seeded at 30,000 cell/mL in 96-well plates (6000 cells/well) and treated 3 days after seeding. Cells were exposed to 120 natural compounds in 5 different experimental conditions: (1) 72 h exposure at 10 µM followed by 24 h recovery period prior to analysis; (2) 24 h treatment at 50 µM prior to analysis; (3) 72 h exposure at 10 µM of the compound library followed by 24 h treatment with HDAC inhibitor trichostatin A (200 nM) prior to analysis; (4) 72 h exposure at 10 µM in simultaneous combination with decitabine (50 nM) followed by 24 h recovery period prior to analysis; and (5) 72 h treatment with decitabine (50 nM) followed by 24 h exposure with the natural compound library (50 µM) prior to analysis. The scheme of different dose schedules is shown Figure S1A. During screening, drugs and cell culture media were replaced every day. To ensure the quality and the reproducibility of the screen, each 96-well plate was designed to include 80 natural compounds, 4 untreated wells, 4 wells treated with decitabine (50 nM, 72 h), 4 wells treated with trichostatin A (200 nM, 24 h), and their combination with decitabine (50 nM, 72 h) followed by trichostatin A treatment (200 nM, 24 h) prior to flow cytometry analysis. The percentage of GFP-expressing cells in control wells (untreated or treated with known epigenetic drugs) was measured and was reproducible between different plates.
After treatment, YB5 cells were trypsinized for 15 min and resuspended in L-15 media containing propidium iodide (PI) to stain dead cells. GFP expression and PI staining were quantified by a BD LSR II flow cytometer (BD Biosciences, San Jose, CA, USA). A maximum of 10,000 cells was analyzed per well. Validations were performed using a Millipore Guava flow cytometer (EMD, Millipore, Burlington, MA, USA). […]

histone 3 and histone 4 = experiment: histone acetylation by mass spectrometry; assay type: cell-based, human; conditions: eleven lysine residues, YB5 cells
Procedure: As described previously, histone proteins were acid-extracted (0.2 N HCl) for 16 h. Histone acetylation levels were quantified on histone 3 and histone 4 by a Thermo TSQ Quantum Access triple quadrupole (QqQ) mass spectrometer (Thermofisher Scientific, Waltham, MA, USA).

Structure (SMILES): N#Cc1cn([C@@H]2O[C@H](CO)[C@@H](O)[C@H]2O)c2ncnc(N)c12 [toyocamycin, 7-Deaza-7-cyanoadenosine]
- IC50 (CDK2/Cyclin 2A): 670 nM
- GFP-expressing YB5 cells (YB5 cells; 250 nM, 48 h): about 10%
- YB5 cells expressing GFP (YB5 cells; 5 µM, 72 h): More than 60%
- GFP expression, % of YB5 cells (YB5 cells; sequential combination with decitabine, toyocamycin 0.5–5 µM): up to 40%
- GFP-expressing cells with CDK9 overexpression (HA-CDK9, FLAG-CDK9) (YB5 cells; toyocamycin 250 nM 48 h, MC180295 500 nM 48 h): reduction in the number of GFP-expressing cells
- histone 3 and 4 lysine acetylation levels (histone 3 and histone 4): did not modify lysine acetylation levels
